Assays:
adenosine A2 receptor = target: T1, adenosine A2 receptor (Rattus norvegicus, UniProt P30543); experiment: Adenosine Receptor Binding--A2 Receptor Affinity (RBA2), [3H]NECA displacement, rat striatal membranes; design: species or system rat (Sprague-Dawley); conditions: 4 nM [3H]NECA, 50 nM N6-cyclopentyladenosine, rat striatum, 25° C., read-out: RBA-2
T1 construct: Brains were thawed and then kept on ice while the striata were dissected out; tissue Pel-Freez (Rogers, Ark.); host or cells: rat striatum, membranes (mixed sex Sprague-Dawley)
Protocol: Brains from 200-500 g mixed sex Sprague-Dawley rats were purchased from Pel-Freez (Rogers, Ark.). Fresh brains from male Long-Evans hooded rats (Blue Spruce Farms, Altamont, N.Y.) gave essentially identical results. Brains were thawed and then kept on ice while the striata were dissected out. Striata were disrupted in 10 vol of ice-cold 50 mM Tris.HCl (pH 7.7 at 25° C., pH 8.26 at 5° C.) (Tris) for 30 seconds in a Polytron PT-10 (Brinkmann) at setting 5. The suspension was centrifuged at 50,000 xg for ten minutes, the supernatant discarded, the pellet resuspended in 10 vol ice-cold Tris as above, recentrifuged, resuspended at 1 g/5 ml, and stored in plastic vials at -70° C. (stable for at least six months). When needed, tissue was thawed at room temperature, disrupted in a Polytron, and kept on ice until used.
All incubations were for 60 minutes at 25° C. in 12×75 mm glass tubes containing 1 ml Tris with 5 mg original tissue weight of rat weight of rat striatal membranes, 4 nM [^3 H]-N-ethyl adenosine-5'-carboxamide ([^3 H]NECA), 50 nM N^6 -cyclopentyladenosine (to eliminate A1 receptor binding), 10 mM MgCl2, 0.1 units/ml of adenosine deaminase and 1% dimethylsulfoxide. N^6 -Cyclopentyladenosine was dissolved at 10 mM in 0.02N HCl and diluted in Tris. Stock solutions and dilutions of N^6 -cyclopentyladenosine could be stored at -20° C. for several months. Test compounds were dissolved at 10 mM in dimethylsulfoxide on the same day as the experiment, and diluted in dimethylsulfoxide to 100× the final incubation concentration. Control incubations received an equal volume (10 μl) of dimethylsulfoxide; the resulting concentration of dimethylsulfoxide had no effect on binding. [^3 H]NECA was diluted to 40 nM in Tris. The membrane suspension (5 mg/0.79 ml) contained sufficient MgCl2 and adenosine deaminase to give 10 mM and 0.1 units/ml, respectively, final concentration in the incubation. […]
Incubations were terminated by filtration through 2.4 cm GF/B filters under reduced pressure. […] Filters were put in scintillation vials, 8 ml of Formula 947 scintillation fluid added, and the vials left overnight, shaken, and counted in a liquid scintillation counter at 40% efficiency.
Nonspecific binding was defined as binding in the presence of 100 μM N^6 -cyclopentyladenosine, and specific binding was defined as total binding minus nonspecific binding. The IC50 was calculated by weighted nonlinear least squares curve-fitting to the mass-action equation. […]
Weighting factors were calculated under the assumption that the standard deviation was proportional to the predicted value of Y. Nonspecific binding was treated as a very large (infinite) concentration of drug in the computer analysis.

adenosine A1 receptor = target: T2, adenosine A1 receptor (Rattus norvegicus, UniProt P25099); experiment: Adenosine Receptor Binding--A1 Receptor Affinity (RBA1), [3H]-CHA displacement, rat whole brain membranes; design: species or system rat (Long Evans); conditions: 1.0 nM [3H]-CHA, pH 7.7, 25° C., read-out: RBA-1
T2 construct: Whole brain minus cerebellum and brainstem from male Long Evans rats; from tissue; host or cells: rat whole brain minus cerebellum and brainstem, membranes (male Long Evans)
T2 sequence (P25099 1-326): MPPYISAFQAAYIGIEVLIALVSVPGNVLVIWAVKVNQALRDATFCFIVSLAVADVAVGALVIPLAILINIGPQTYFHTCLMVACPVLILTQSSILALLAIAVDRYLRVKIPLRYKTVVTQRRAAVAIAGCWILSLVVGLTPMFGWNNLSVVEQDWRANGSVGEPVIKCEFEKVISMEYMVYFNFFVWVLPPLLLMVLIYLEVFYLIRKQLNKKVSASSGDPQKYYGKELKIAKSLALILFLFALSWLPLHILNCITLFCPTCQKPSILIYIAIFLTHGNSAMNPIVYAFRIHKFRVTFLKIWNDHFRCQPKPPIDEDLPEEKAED
Protocol: Whole brain minus cerebellum and brainstem from male Long Evans rats (150-200 g) was homogenized in 30 volumes of ice-cold 0.05 M Tris-HCl buffer pH 7.7 using a Brinkman Polytron PT-10, (setting number 6 for 20 seconds) and centrifuged for ten minutes at 20,000×g (Sorvall RC-2), 4° C. The supernatant was discarded, and the pellet was resuspended and centrifuged as before. The pellet was resuspended in 20 ml Tris-HCl buffer containing two International Units/ml of adenosine deaminase (Sigma type III from calf intestinal mucosa), incubated at 37° C. for 30 minutes, then subsequently at 0° C. for ten minutes. The homogenate was again centrifuged, and the final pellet was resuspended in ice-cold 0.05 M Tris-HCl buffer pH 7.7 to a concentration of 20 mg/ml original wet tissue weight and used immediately.
Tissue homogenate (10 mg/ml) was incubated in 0.05 M Tris-HCl buffer pH 7.7 containing 1.0 nM [^3 H]-N^6 -cyclohexyladenosine (^3 H]-CHA) with or without test agents in triplicate for one hour at 25° C. Incubation volume was 2 ml. Unbound [^3 H]-CHA was separated by rapid filtration under reduced pressure through Whatman glass fiber (GF/B) filters. The filters were rinsed three times with 5 ml of ice cold 0.05 M Tris-HCl buffer pH 7.7. The radio-labeled ligand retained on the filter was measured by liquid scintillation spectrophotometry after shaking the filters for one hour or longer on a mechanical shaker in 10 ml of Beckman Ready-Solv HP scintillation cocktail.
Nonspecific binding was defined as the binding which occurred in the presence of 1 mM theophylline. The concentration of test agent which inhibited 50% of the specific binding (IC50) was determined by nonlinear computer curve fit. The Scatchard plot was calculated by linear regression of the line obtained by plotting the amount of radioligand bound [formula] Since the amount of radioligand bound was a small fraction of the total amount added, free radioligand was defined as the concentration (nM) of radioligand added to the incubation mixture. The Hill coefficient was calculated by linear regression of the line obtained by plotting the log of the bound radioligand vs the log of the [formula] The maximal number of binding sites (Bmax) was calculated from the Scatchard plot.

[1] = Mouse Activity and Screen Test Procedure (MAST): screen test (mice falling off inverted screen); type: in vivo, mouse (Swiss-Webster, male); conditions: IP
Excerpt: (§1) The compounds of the invention are new chemical substances which are useful as pharmaceutical agents for the treatment of psychoses. The antipsychotic activity of representative compounds of the invention was established by the Mouse Activity and Screen Test Procedure (MAST) described below.
(§2) Nine unfasted Swiss-Webster male mice weighing 20-30 g are equally divided into three groups for each drug dose to be tested. That is, data for each dose level was generated by three separate groups of three mice each.
(§3) A minimum of three dose levels (10, 30, and 100 mg/kg) are tested for each drug. Treatments are administered intraperitoneally one hour prior to testing. All dosages are calculated as parent compound and given in volumes of 10 ml/kg. Compounds are dissolved or suspended in 0.2% Methocel. Control animals are injected with Methocel.
(§4) Testing: A two part testing procedure is started one hour postinjection. First, the screen test (ST) is performed (see Pharmac. Biochem. Behav. 6, 351-353, 1977). Briefly this test consists of placing mice on individual wire screens which are then rotated 180 degrees at the start of a 60 second observation period. The number of mice falling off the inverted screen is recorded.
(§5) Data: The data obtained from the screen test are expressed as percent of mice falling off the screen. Data derived from locomotor activity of drug treated mice are compared to the activity of vehicle treated animals and are expressed as percent inhibition of spontaneous locomotion. All percentages reported for inhibition of locomotion (LI) are based upon data accumulated for one hour. Both phases of testing are graded: A=60-100%; C=31-59%; and N=0-30%. An overall dose rating is obtained by the following criteria:
(§6) LAD refers to the lowest dose at which an A rating is achieved. […] Utilizing this procedure, an overall dose rating of A was obtained for the noted compound at the indicated dose. The compounds are identified in the Examples.

[2] = Mouse Activity and Screen Test Procedure (MAST): inhibition of spontaneous locomotion (actophotometer) and overall dose rating; type: in vivo, mouse (Swiss-Webster, male); conditions: PO
[3] = Mouse Activity and Screen Test Procedure (MAST): screen test (mice falling off inverted screen); type: in vivo, mouse (Swiss-Webster, male); conditions: PO
[4] = Mouse Activity and Screen Test Procedure (MAST): inhibition of spontaneous locomotion (actophotometer) and overall dose rating; type: in vivo, mouse (Swiss-Webster, male); conditions: IP
Excerpt: as §1, §2, §3, §4
Immediately following the screen test, the final phase of testing is initiated by placing each group of three mice in one actophotometer (Life Sciences, 22, 1067-1076, 1978). The actophotometer consists of a cylindrical chamber whose center is occupied by another cylinder which contains the illumination for six photocells located on the perimeter of the chamber. Six light-beam interruptions equal one count. Locomotor activity is recorded by computer at ten minute intervals for 60 minutes.
as §5, §6

T1 sequence (P30543 whole entry): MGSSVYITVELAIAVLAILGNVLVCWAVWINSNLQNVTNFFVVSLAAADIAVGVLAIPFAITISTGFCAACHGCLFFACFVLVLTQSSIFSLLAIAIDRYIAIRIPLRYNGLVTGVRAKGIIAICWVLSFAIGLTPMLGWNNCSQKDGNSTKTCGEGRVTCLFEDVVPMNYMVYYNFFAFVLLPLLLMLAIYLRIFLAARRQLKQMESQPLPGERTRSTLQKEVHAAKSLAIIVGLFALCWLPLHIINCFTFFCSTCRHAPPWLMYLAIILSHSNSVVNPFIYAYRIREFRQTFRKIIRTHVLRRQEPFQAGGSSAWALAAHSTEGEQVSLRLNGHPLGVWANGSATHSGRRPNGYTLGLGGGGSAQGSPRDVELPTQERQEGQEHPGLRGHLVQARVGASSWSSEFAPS

Structure (SMILES) | IC50 (adenosine A2 receptor) [nM] | IC50 (adenosine A1 receptor) [nM] | Screen Test Failure ([1]; 3 mg/kg) [%] | Screen Test Failure ([1]; 10 mg/kg) [%] | Screen Test Failure ([1]; 30 mg/kg) [%] | Inhibition of Mouse Locomotion Activity ([2]; 3 mg/kg) [%] | Inhibition of Mouse Locomotion Activity ([2]; 10 mg/kg) [%] | Inhibition of Mouse Locomotion Activity ([2]; 30 mg/kg) [%] | Screen Test Failure ([3]; 3 mg/kg) [%] | Screen Test Failure ([3]; 10 mg/kg) [%] | Screen Test Failure ([3]; 30 mg/kg) [%] | Inhibition of Mouse Locomotion Activity ([4]; 3 mg/kg) [%] | Inhibition of Mouse Locomotion Activity ([4]; 10 mg/kg) [%] | Inhibition of Mouse Locomotion Activity ([4]; 30 mg/kg) [%]
COc1ccc2c(CCNc3ncnc4c3ncn4[C@@H]3O[C@H](CO)[C@@H](O)[C@H]3O)csc2c1 [Example 1, N-[2-(6-methoxybenzo[b]thien-3-yl)ethyl]adenosine] | 343 | 7.7 | 0 | 11 | 11 | 12 | 42 | 84 | 17 | 0 | 44 | 23 | 48 | 92
OC[C@H]1O[C@@H](n2cnc3c(NCCc4csc5ccccc45)ncnc32)[C@H](O)[C@@H]1O [Example 2, N-[2-(benzo[b]thien-3-yl)ethyl]adenosine] | 303 | 12 | 0 | 11 | 0 |  |  |  |  |  |  | 21 | 30 | 63
OC[C@H]1O[C@@H](n2cnc3c(NCCc4csc5ccc(Cl)cc45)ncnc32)[C@H](O)[C@@H]1O [Example 3, N-[2-(5-chlorobenzo[b]thien-3-yl)ethyl]adenosine] | 549 | 4.5 | 0 | 0 | 0 |  |  |  |  |  |  | 27 | 54 | 86
Cc1ccc2scc(CCNc3ncnc4c3ncn4[C@@H]3O[C@H](CO)[C@@H](O)[C@H]3O)c2c1 [Example 4, N-[2-(5-methylbenzo[b]thien-3-yl)ethyl]adenosine] | 413 | 4.3 | 0 | 0 | 0 |  |  |  |  |  |  | 48 | 63 | 89

From patent publication US4764506A, “N^6 -(benzothien-3-yl)ethyl adenosine; N^6 -(benzothien-3-yl)ethyl adenosine, S-oxide; and N^6 -(benzothien-3-yl)ethyl S,S-dioxide adenosine” (Warner-Lambert Company, priority 1986, dated 1988)
